ChEMBL document CHEMBL5465560, “Selectivity Literature for EUbOPEN Chemogenomic Library” (2024)
Blank lines part the entries; values can stand above or below the molecule they belong to.

Key:
[1] = target: T1, G protein-coupled receptor kinase 3 (Homo sapiens) (UniProt P35626); test: Selectivity interaction (KinomeScan (DiscoverX)) EUB0001049a ADRBK2; details: at 1 µM
T1 sequence (whole entry): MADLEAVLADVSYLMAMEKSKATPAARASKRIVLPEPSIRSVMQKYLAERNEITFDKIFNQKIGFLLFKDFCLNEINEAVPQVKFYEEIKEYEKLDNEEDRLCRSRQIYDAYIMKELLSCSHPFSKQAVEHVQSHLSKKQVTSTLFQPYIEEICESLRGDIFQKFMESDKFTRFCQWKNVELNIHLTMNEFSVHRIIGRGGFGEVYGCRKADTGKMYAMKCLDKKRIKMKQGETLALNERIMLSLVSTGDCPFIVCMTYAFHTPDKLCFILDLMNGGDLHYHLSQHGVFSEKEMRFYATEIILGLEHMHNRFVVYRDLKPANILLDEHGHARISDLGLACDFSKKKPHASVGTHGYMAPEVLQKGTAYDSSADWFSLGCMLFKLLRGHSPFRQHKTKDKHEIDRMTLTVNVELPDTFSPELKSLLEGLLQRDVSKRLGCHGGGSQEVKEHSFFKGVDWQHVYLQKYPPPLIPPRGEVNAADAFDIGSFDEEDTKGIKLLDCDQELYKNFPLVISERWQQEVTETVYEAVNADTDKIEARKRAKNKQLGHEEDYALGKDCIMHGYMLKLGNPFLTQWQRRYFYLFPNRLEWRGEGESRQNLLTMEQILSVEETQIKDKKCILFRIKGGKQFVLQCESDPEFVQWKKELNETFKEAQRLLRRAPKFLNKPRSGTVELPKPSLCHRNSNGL

[2] = target: Cyclin-dependent kinase 14 (Homo sapiens) (UniProt O94921); test: Selectivity interaction (Ambit KINOMEscan and KiNATiv profiling in Jurkat cells) EUB0000090b CDK14; assay type: cell-based; details: at 1 µM
[3] = target: T2, Ephrin type-B receptor 1 (Homo sapiens) (UniProt P54762); test: Selectivity interaction (Kinase panel (Z-LYTE Assay)) EUB0001632a EPHB1; details: at 10 µM
T2 sequence (whole entry): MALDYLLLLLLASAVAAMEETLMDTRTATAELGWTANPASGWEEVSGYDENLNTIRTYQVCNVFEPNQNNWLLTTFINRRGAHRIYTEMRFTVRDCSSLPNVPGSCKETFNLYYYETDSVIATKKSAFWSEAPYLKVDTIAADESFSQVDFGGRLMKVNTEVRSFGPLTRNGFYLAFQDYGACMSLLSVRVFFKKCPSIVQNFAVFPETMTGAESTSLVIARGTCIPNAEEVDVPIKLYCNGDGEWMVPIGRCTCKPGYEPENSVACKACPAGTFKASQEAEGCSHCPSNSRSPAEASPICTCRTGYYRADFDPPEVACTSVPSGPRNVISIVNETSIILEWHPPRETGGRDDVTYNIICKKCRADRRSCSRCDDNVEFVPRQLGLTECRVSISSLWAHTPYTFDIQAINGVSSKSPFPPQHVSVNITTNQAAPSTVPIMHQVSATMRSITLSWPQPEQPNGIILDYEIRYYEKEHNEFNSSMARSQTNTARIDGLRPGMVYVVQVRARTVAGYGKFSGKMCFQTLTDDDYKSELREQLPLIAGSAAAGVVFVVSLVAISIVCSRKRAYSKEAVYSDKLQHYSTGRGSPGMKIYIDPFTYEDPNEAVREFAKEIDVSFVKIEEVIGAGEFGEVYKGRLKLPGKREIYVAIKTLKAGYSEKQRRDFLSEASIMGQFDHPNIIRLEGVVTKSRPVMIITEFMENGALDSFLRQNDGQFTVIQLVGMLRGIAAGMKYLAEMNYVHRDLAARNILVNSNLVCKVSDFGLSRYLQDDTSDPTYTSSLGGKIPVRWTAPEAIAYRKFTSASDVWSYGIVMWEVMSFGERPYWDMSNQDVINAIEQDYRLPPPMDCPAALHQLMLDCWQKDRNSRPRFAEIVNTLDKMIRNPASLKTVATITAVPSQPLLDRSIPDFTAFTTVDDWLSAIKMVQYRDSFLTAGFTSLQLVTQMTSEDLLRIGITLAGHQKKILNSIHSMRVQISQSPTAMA

[4] = target: MAP kinase-activated protein kinase 2 (Homo sapiens, UniProt P49137); test: Selectivity interaction (KinomeScan (DiscoverX)) EUB0000695a MAPKAPK2; details: at 100 nM
[5] = target: T3, Membrane-associated tyrosine- and threonine-specific cdc2-inhibitory kinase (Homo sapiens) (UniProt Q99640); test: Selectivity interaction (KinomeScan (DiscoverX)) EUB0000695a PKMYT1; details: at 100 nM
T3 sequence (whole entry): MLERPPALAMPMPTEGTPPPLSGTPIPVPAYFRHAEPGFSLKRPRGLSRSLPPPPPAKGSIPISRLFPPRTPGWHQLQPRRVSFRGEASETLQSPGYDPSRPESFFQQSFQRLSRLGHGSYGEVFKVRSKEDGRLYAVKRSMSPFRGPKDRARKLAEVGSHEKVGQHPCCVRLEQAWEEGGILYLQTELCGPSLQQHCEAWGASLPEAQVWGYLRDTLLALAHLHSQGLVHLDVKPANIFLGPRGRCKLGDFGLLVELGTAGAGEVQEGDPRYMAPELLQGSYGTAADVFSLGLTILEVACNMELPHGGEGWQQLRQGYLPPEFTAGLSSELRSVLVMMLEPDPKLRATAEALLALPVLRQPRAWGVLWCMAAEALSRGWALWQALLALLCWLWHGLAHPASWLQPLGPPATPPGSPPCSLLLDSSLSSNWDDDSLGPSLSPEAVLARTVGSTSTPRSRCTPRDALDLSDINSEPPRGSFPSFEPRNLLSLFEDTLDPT

[6] = target: Tyrosine-protein kinase JAK1 (Homo sapiens, UniProt P23458); test: Selectivity interaction (KinomeScan (DiscoverX)) EUB0000092b JAK1; details: at 10 µM
[7] = target: T4, Phosphatidylinositol 5-phosphate 4-kinase type-2 beta (Homo sapiens) (UniProt P78356); test: Selectivity interaction (ActivX KiNativ screen (ex vivo kinase selectivity in human PBMCs)) EUB0001619a PIP4K2B; assay type: cell-based; details: PBMC, at 1 µM
T4 sequence (whole entry): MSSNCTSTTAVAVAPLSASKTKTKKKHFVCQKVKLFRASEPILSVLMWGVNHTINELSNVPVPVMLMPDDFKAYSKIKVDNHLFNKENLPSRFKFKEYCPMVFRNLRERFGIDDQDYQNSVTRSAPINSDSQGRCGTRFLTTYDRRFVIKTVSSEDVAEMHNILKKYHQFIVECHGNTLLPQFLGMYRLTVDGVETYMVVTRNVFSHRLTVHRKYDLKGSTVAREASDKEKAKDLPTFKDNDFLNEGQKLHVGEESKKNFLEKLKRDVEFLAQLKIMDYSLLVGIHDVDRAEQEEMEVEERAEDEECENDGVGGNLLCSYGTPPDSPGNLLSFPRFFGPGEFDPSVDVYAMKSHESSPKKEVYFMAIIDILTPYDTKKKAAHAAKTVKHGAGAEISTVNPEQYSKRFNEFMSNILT

[8] = target: Ribosomal protein S6 kinase alpha-2 (Homo sapiens) (UniProt Q15349); test: Selectivity interaction (KinomeScan (DiscoverX)) EUB0000607a RPS6KA2; details: at 10 µM
Chain of Ribosomal protein S6 kinase alpha-2 (Homo sapiens) (Q15349 whole entry): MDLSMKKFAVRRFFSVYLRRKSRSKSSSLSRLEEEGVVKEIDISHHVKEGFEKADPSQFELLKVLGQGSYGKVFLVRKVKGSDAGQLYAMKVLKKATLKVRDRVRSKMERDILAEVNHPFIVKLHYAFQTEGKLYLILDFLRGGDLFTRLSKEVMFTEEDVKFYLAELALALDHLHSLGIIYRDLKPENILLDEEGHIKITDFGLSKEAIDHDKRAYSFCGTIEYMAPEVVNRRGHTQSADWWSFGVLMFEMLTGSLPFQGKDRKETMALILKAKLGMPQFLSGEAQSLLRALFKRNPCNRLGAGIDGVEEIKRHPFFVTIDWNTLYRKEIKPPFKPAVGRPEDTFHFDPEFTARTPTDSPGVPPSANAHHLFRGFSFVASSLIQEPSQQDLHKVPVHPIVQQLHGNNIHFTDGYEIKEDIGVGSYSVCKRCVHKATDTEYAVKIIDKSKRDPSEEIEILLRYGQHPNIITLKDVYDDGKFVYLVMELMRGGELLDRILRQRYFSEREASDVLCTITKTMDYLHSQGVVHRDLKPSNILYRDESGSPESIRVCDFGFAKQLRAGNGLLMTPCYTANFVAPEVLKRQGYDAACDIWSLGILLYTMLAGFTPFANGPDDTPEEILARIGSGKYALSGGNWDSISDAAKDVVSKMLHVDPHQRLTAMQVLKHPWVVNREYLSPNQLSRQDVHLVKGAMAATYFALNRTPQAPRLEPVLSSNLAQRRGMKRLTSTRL

Chain of Tyrosine-protein kinase JAK1 (P23458 whole entry): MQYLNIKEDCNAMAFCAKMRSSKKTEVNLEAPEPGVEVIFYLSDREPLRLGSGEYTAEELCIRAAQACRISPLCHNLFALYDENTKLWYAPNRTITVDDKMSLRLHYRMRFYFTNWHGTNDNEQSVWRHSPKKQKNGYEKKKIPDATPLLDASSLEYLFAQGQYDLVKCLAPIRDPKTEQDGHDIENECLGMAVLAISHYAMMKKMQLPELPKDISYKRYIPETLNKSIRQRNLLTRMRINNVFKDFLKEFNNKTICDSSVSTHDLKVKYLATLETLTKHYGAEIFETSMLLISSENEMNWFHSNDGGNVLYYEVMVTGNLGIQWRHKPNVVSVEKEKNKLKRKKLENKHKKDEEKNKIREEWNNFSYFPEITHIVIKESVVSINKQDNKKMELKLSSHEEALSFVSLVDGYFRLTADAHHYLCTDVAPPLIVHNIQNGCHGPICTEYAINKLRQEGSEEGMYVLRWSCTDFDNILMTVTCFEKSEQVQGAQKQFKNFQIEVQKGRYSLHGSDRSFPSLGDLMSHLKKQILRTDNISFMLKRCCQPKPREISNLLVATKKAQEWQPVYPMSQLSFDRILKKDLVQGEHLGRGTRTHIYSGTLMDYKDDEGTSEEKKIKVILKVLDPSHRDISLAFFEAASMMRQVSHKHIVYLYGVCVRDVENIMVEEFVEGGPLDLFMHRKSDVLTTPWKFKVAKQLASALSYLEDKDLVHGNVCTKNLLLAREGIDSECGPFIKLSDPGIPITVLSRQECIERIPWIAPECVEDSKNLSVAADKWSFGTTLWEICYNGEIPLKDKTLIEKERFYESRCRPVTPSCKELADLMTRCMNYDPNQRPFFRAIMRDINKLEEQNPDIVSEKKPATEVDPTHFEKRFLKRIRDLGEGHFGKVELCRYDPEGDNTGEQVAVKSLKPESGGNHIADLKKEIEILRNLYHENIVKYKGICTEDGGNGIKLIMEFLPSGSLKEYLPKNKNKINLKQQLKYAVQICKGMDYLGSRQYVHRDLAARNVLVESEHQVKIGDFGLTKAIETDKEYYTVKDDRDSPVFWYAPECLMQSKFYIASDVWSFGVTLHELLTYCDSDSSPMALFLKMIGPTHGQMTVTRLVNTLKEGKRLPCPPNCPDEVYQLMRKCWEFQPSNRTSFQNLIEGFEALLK
Chain of MAP kinase-activated protein kinase 2 (P49137 whole entry, looked up): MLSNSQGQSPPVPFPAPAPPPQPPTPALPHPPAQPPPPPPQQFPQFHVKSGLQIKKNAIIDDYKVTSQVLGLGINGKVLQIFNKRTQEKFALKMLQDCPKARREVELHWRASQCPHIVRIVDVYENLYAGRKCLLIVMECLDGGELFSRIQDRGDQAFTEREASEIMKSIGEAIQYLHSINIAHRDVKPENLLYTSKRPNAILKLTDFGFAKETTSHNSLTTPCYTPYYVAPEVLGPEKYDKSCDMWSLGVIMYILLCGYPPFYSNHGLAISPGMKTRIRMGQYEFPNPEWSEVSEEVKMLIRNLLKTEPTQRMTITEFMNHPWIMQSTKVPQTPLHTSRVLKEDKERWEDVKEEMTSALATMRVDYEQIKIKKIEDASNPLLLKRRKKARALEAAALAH
Chain of Cyclin-dependent kinase 14 (Homo sapiens) (O94921 whole entry): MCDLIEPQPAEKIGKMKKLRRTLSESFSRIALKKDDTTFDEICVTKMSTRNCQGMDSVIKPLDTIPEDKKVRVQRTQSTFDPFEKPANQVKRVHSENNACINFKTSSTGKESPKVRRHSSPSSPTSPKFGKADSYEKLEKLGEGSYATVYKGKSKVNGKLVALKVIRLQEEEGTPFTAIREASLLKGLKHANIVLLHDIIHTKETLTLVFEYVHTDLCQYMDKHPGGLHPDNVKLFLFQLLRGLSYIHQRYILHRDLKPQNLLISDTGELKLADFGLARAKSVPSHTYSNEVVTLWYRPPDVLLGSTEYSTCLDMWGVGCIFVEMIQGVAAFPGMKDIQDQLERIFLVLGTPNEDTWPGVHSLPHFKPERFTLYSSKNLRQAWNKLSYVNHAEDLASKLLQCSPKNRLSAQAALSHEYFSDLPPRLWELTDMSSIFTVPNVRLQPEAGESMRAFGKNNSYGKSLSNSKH

Compound: COc1cc(Nc2nc(C)cc(-c3cnn4nc(OC)ccc34)n2)cc(C(F)(F)F)c1
% of control [1]: 100%

Compound: CN(C)C/C=C/C(=O)Nc1ccc(C(=O)N2CCCC(Nc3ncc(Cl)c(-c4c[nH]c5ccccc45)n3)C2)cc1 (stereo not drawn)
% of control [2]: 69%

% of control [3]: -4.1%
Compound: Cn1cc(-n2cnc3c(NCc4nc5cc(Cl)c(Cl)cc5[nH]4)nc(N4CCOCC4)nc32)cn1

Compound: Cc1cc(F)c(C(=O)Nc2cccc(-c3nncn3C(C)C)n2)cc1-n1cnc(C2CC2)c1
% of control [4]: 57%
% of control [5]: 98%

Compound: CCC(=O)N1CCN(c2ccc(-n3c(=O)ccc4cnc5ccc(-c6cnc7ccccc7c6)cc5c43)cc2C(F)(F)F)CC1
% of control [6]: 82%

Compound: N#Cc1cccc(-c2c[nH]c3ncnc(N4CCOCC4)c23)c1
% of inhibition [7]: 16%

Compound: CNC(=O)Nc1ccc(-c2nc(N3CC4CCC(C3)O4)c3cnn(C4CCC5(CC4)OCCO5)c3n2)cc1
% of control [8]: 100%
